Values quoted from earlier work as cited in patent publication US7596836B2 (priority 2007, dated 2009).

What was measured:
[1] = in vivo
HIV = conditions: clinical trials; response directly related to the dosage given
[2] = 250 mg chloroquine phosphate twice daily must be monitored closely
[3] = in vivo; remark: listed apart in the source
Avian Influenza H5N1 = conditions: patients worldwide, current strain of Avian Influenza H5N1
[4] = reports in Japan, including suicide attempts
influenza = conditions: dosage of a compound containing 1% to 3% thymol

## CCN(CC)CCCC(C)Nc1ccnc2cc(Cl)ccc12 (stereo not shown) [chloroquine]
[1]
  serum half-life: 4 days
HIV
  efficacy against HIV: effective against HIV
[2]
  toxicity of oral chloroquine: ocular complications and renal toxicity

## CC1CCC(C(C)C)C(O)C1 (stereo not shown) [Menthol]
[3]
  reduction of coughing: 50%

## CCOC(=O)C1=C[C@@H](OC(CC)CC)[C@H](NC(C)=O)[C@@H](N)C1 [oseltamivir]
Avian Influenza H5N1
  mortality of oseltamivir treated patients: ~50%
[4]
  reported side effects: serious neuropsychiatric symptoms

## Cc1ccc(C(C)C)c(O)c1 [thymol, Thymol]
influenza
  effect against influenza: effective at fighting influenza
